Here are results for 15 molecules from patent US20190002436A1, “RESPIRATORY SYNCYTIAL VIRUS INHIBITORS” (MEDIVIR AB, priority 2015, published 2019).

Like-named read-outs stand apart in the source and are kept apart here.

In the test the test system is RSV (Long). The test can be described thus: RSV cytopathic effect (CPE)-based viral replication assay. The format is cell-based, respiratory syncytial virus (RSV). The conditions noted are these: HEp-2 cells infected with RSV Long at MOI 0.015, 3 days at 37° C., cell viability by CellTiter-Glo luminescence, read-out: EC50 (nm). Put shortly: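 HEp-2 cells, 2,500 per well in DMEM with 2% heat-inactivated FBS, treated with 10-point compound dilutions and infected with RSV Long at MOI 0.015. After 3 days at 37 °C, 5% CO2, viability read by CellTiter-Glo luminescence; EC50 derived from CPE data.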

The mark [1] stands for this setting: human respiratory syncytial virus, HEp-2, 72 h.

As for `CS(=O)(=O)N1CCC2(CC1)C(=O)N(Cc1ncc3ccccc3c1-c1cn[nH]c1)c1cnccc12` [Example 2029], the EC50 under setting [1] stood at 2.6 nM.

`NC1(C(=O)N2CCC3(CC2)C(=O)N(Cc2ncc4ccccc4c2-c2cn[nH]c2)c2cnccc23)CC1` [Example 2030]: the EC50 under setting [1] stood at 5.7 nM. Take `NC1(C(=O)N2CCC3(CC2)C(=O)N(Cc2ncc4ccccc4c2-c2cc[nH]c2)c2cnccc23)CC1` [Example 2031]: under setting [1], the EC50 amounted to 120 nM. As to `NC(=O)c1ccc(-c2c(CN3C(=O)C4(CCN(C(=O)[C@@H](N)CO)CC4)c4ccncc43)ncc3ccccc23)cn1` [Example 2032], the half-maximal effective concentration (EC50) under setting [1] is 2.7 nM.

`NC(=O)c1ccc(-c2c(CN3C(=O)C4(CCN(C(=O)[C@@H]5CCCN5)CC4)c4ccncc43)ncc3ccccc23)cn1` [Example 2033]: the concentration giving a half-maximal response (EC50) under setting [1] came to 27 nM.

In the case of `CS(=O)(=O)N1CCC2(CC1)C(=O)N(Cc1ncc3cc(F)ccc3c1-c1cccnc1)c1cnccc12` [Example 2034], the EC50 under setting [1] is 2.6 nM. In the case of `CS(=O)(=O)N1CCC2(CC1)C(=O)N(Cc1ncc3cc(F)ccc3c1-c1ccncc1)c1cnccc12` [Example 2035], the EC50 under setting [1] was found to be 2.8 nM. The same measure, in the same setting: the result for `NC1(C(=O)N2CCC3(CC2)C(=O)N(Cc2ncc4ccccc4c2-c2ccc(OC(F)(F)F)cc2)c2cnccc23)CC1` [Example 2036] reads 23 nM; that for `NCC(N1CC2(C1)C(=O)N(Cc1ncc3ccccc3c1-c1cccnc1)c1ccccc12)C(F)(F)F` (stereo not drawn) [Example 2037], 0.82 nM. For the molecule `CS(=O)(=O)N1CCC2(CC1)C(=O)N(Cc1ncc3ccccc3c1-c1ccc(C3(N)COC3)nc1)c1cnccc12` [Example 2038], under setting [1], the EC50 amounted to 11 nM. Same read-out and setting: under `COC(=O)N1CC2(C1)C(=O)N(Cc1ncc3cc(C#N)c(F)cc3c1-c1cccnc1)c1ccccc12` [Example 2039] stands 46 nM. Turning to `NC(C(=O)N1CCC2(CC1)C(=O)N(Cc1ncc3ccccc3c1-c1cncs1)c1cnccc12)C(F)(F)F` (stereo not drawn) [Example 2040], the EC50 under setting [1] was 1.9 nM. As for `CS(=O)(=O)N1CCC2(CC1)C(=O)N(Cc1ncc3ccccc3c1C1CNC(=O)C1)c1cnccc12` (stereo not drawn) [Example 2041], the EC50 is 5.8 nM. On to `NC(c1ccc(-c2c(CN3C(=O)C4(CCN(C(=O)C5(N)CC5)CC4)c4ccncc43)ncc3ccccc23)cn1)C(F)(F)F` (stereo not drawn) [Example 2042], for which the 50% effective concentration (EC50) under setting [1] worked out at 22 nM. `NC1(C(=O)N2CCC3(CC2)C(=O)N(Cc2ncc4ccccc4c2-c2cnco2)c2cnccc23)CC1` [Example 2043]: the concentration giving a half-maximal response (EC50) under setting [1] amounted to 40 nM.

By EC50 is commonly meant the concentration at which the effect is half-maximal.
